Here are results for 6 compounds from patent US20030133974A1 (priority 1997, published 2003).

Series [1] is described as follows: Human crossover pharmacokinetics of 200 mg sertraline delivered to various portions of the gastrointestinal tract (Example 1). To be noted: Group A. Format: in vivo.
Procedure: Dosing was via (1) oral tablets, or (2) infusion of a solution through a nasoenteric tube into the stomach, duodenum, or ileocecal region of the small intestine, or (3) infusion into the transverse colon via anal intubation.
The infusions were administered as a 2 mg/ml solution at a rate of 20 ml/min for 5 min.
Analysis was carried out by capillary gas chromatography with electron capture detection. […] Tmax is the time at which Cmax is achieved.
Series [2] is described as follows: Dilution of PEG-400 or polysorbate-80 solution of sertraline base into 0.9% NaCl (Example 3). Format: physicochemical. As for the experimental part: One ml of this test solution was added to 15 ml normal saline (0.9% NaCl, pH 4.2), and was stirred vigorously.
For series [3] the following is noted: human, in vivo.
For series [4] the following is noted: dosed as Zoloft tablets; cited from earlier work.
A further series can be described thus: clinical. To be noted: human, in vivo, po.
A short description of series [5]: Precipitation studies with sertraline base in 0.1N HCl and phosphate buffered saline pH 5.8 (Example 4).
Procedure: Solution (a) is a simulated gastric fluid, and solution (b) is a simulated intestinal fluid.
PEG400 is miscible with aqueous media, while Capmul®-MCM and safflower oil are not. One milliliter of the test solution was added to 10 mL of (a) 0.1N HCl solution and (b) phosphate buffered saline (PBS) pH 5.8 and was stirred vigorously.
Mobile phase: per liter of mobile phase: 270 mL of tetrahydrofuran, 230 mL of methanol and 400 mL of buffer. The buffer consisted of 25 mM triethylamine phosphate. It was prepared by adding 1.7 mL of phosphoric acid and 3.5 mL of tirethylamine to 1 liter of water.
A short description of series [6]: Equilibrium solubility of sertraline base and hydrochloride in selected vehicles (Table 4-4). Format: physicochemical. To be noted: vehicle Miglyol 810. The source says:
Water-immiscible vehicles do have this capacity.

Another series can be described thus: physchem. The following applies: simulated gastric fluid.
The conditions of series [7]: in water; cited from earlier work.
Series [8] in a line: Chloride-induced gelling of sertraline salt solutions. Format: physicochemical.

Where a name gives a salt, the structure may show the parent alone.

The Tmax is the time at which the peak concentration occurs. Take `CN[C@H]1CC[C@@H](c2ccc(Cl)c(Cl)c2)c2ccccc21` [sertraline]: the AUCO-LAST was 727.1 ng·h/mL in [1] (Ileocecal Infusion of solution), 1174.5 ng·h/mL in series [1] (Oral Tablet (two 100 mg Zoloft tablets)) and 923.1 ng·h/mL in [1] (Stomach Infusion of solution). For the same compound, the results for the “Precipitation upon addition to a NaCl solution” value in series [2] (PEG400 solution of sertraline) and in series [2] (Polysorbate-80 solution of sertraline) were “a portion of the sertraline precipitates” and “no precipitation occurs”, respectively. The “Intrinsic absorption rate constant (ARC)” value in series [3] is given as “greater than 0.025 min^−1”. Further, in series [4], the Absolute oral bioavailability was 54%. Moreover, the time to peak (Tmax) in “clinical” is less than 1.5 h. For the same compound, the Precipitation of sertraline result in [5] (PEG 400 solution added into either 0.1 N HCl or phosphate buffered saline) is given as “precipitation of a large proportion of sertraline”. Besides, in series [5] (vehicle Capmul-MCM, 0.1 N HCl or phosphate buffered saline), the “Portion of sertraline remaining in solution” value was > 95 % of added amount.

What is called solubility is how much of the substance goes into solution per volume. A low value points to a poorly soluble substance. Regarding `CN[C@H]1CC[C@@H](c2ccc(Cl)c(Cl)c2)c2ccccc21` [Hydrochloride, sertraline hydrochloride], the “Equilibrium solubility in Miglyol 810” value in [6] (hydrochloride) was “greater than 0.1 mgA/ml”. In addition, in the series “physchem”, the solubility is roughly 3000 µg/mL.

Consider vitamin E, for which the Aqueous solubility entry in series [7] is “practically insoluble in water”.

As to `CN[C@H]1CC[C@@H](c2ccc(Cl)c(Cl)c2)c2ccccc21` [Lactate, sertraline lactate], the “State of saturated solution at physiological chloride concentrations” value in [8] is “thick pasty solid which does not flow”.

As to `CN[C@H]1CC[C@@H](c2ccc(Cl)c(Cl)c2)c2ccccc21` [Free base, sertraline free base], the “Observed Concentration after Dilution in Saline after 2 hr” value in series [2] (vehicle Polysorbate-80, 50 mgA/ml in vehicle, 1 ml into 15 ml 0.9% NaCl) is 3.1 mgA/ml. In addition, in series [6], the “Equilibrium solubility in Miglyol 810” value is given as greater than 50 mgA/ml. Besides, the “Concentration of sertraline in aqueous layer” value in [5] (Capmul MCM 50 mgA/mL, 1 mL into 10 mL phosphate buffered saline pH 5.8, 120 minutes) is recorded as 0.16 mgA/mL; in series [5] (Safflower oil 50 mgA/mL, 1 mL into 10 mL 0.1 N HCl, 120 minutes), 0.48 mgA/mL; in [5] (Safflower oil 50 mgA/mL, 1 mL into 10 mL phosphate buffered saline pH 5.8, 120 minutes), 0.19 mgA/mL. In addition, the Precipitation of sertraline entry in [5] (solution in safflower oil added to phosphate buffered saline) was “little or no precipitation”.

On to sertraline acetate, for which the “State of saturated solution at physiological chloride concentrations” value in series [8] is listed as “thick pasty solid which does not flow”.
